Assay results: patent US20200017467A1, “NOVEL TRIAZOLE DERIVATIVES” (BAYER CROPSCIENCE AKTIENGESELLSCHAFT, priority 2017, published 2020)

Legend:
[1] = Log P by HPLC on reversed phase columns (EEC directive 79/831 Annex V.A8); assay type: physicochemical; conditions: reversed phase HPLC columns; method [a]: LC-UV, acidic range, 0.1% formic acid in water and acetonitrile; compounds of formula (I)
Description: Log P values: Measurement of Log P values was performed according to EEC directive 79/831 Annex V.A8 by HPLC (High Performance Liquid Chromatography) on reversed phase columns with the following methods: • ^[a] Log P value is determined by measurement of LC-UV, in an acidic range, with 0.1% formic acid in water and acetonitrile as eluent (linear gradient from 10% acetonitrile to 95% acetonitrile). • ^[b] Log P value is determined by measurement of LC-UV, in a neutral range, with 0.001 molar ammonium acetate solution in water and acetonitrile as eluent (linear gradient from 10% acetonitrile to 95% acetonitrile). • ^[c] Log P value is determined by measurement of LC-UV, in an acidic range, with 0.1% phosphoric acid and acetonitrile as eluent (linear gradient from 10% acetonitrile to 95% acetonitrile). If more than one Log P value is available within the same method, all the values are given and separated by “+”. Calibration was done with straight-chain alkan2-ones (with 3 to 16 carbon atoms) with known Log P values (measurement of Log P values using retention times with linear interpolation between successive alkanones). Lambda-max-values were determined using UV-spectra from 200 nm to 400 nm and the peak values of the chromatographic signals.

Puccinia recondita = assay: In vivo preventive test on Puccinia recondita (brown rust on wheat); conditions: 264 h, 500 ppm of active ingredient, preventive spray, evaluated 11 days after inoculation, read-out: efficacy
Description: (§1) Example A: In Vivo Preventive Test on Puccinia recondita (Brown Rust on Wheat) [table] The active ingredients were made soluble and homogenized in a mixture of dimethyl sulfoxide/acetone//Tween® 80 and then diluted in water to the desired concentration. Young plants of wheat were treated by spraying the active ingredient prepared as described above. Control plants were treated only with an aqueous solution of acetone/dimethyl sulfoxide/Tween® 80. After 24 hours, the plants were contaminated by spraying the leaves with an aqueous suspension of Puccinia recondita spores. The contaminated wheat plants were incubated for 24 hours at 20° C. and at 100% relative humidity and then for 10 days at 20° C. and at 70-80% relative humidity. The test was evaluated 11 days after the inoculation. 0% means an efficacy which corresponds to that of the control plants while an efficacy of 100% means that no disease was observed.

Uromyces appendiculatus = assay: In vivo preventive test on Uromyces appendiculatus (bean rust); conditions: 264 h, 500 ppm of active ingredient, preventive spray, evaluated 11 days after inoculation, read-out: efficacy
Description: as §1, with “D:” for “A:”, “Uromyces appendiculatus (Bean Rust)” for “Puccinia recondita (Brown Rust on Wheat)”, “bean” for “wheat”, “Uromyces appendiculatus” for “Puccinia recondita”

[2] = system: Blumeria graminis fsp. hordei; assay: In vivo preventive Blumeria test (barley); conditions: 168 h, 500 ppm of active ingredient, preventive spray, evaluated 7 days after inoculation, read-out: efficacy
Description: Example E: In Vivo Preventive Blumeria Test (Barlev) [table] To produce a suitable preparation of active compound, 1 part by weight of active compound or active compound combination was mixed with the stated amounts of solvent and emulsifier, and the concentrate was diluted with water to the desired concentration. To test for preventive activity, young plants were sprayed with the preparation of active compound or active compound combination at the stated rate of application. After the spray coating had been dried, the plants were dusted with spores of Blumeria graminis fsp. hordei. The plants were placed in the greenhouse at a temperature of approximately 18° C. and a relative atmospheric humidity of approximately 80% to promote the development of mildew pustules. The test was evaluated 7 days after the inoculation. 0% means an efficacy which corresponds to that of the untreated control, while an efficacy of 100% means that no disease is observed.

Row | chromatographic logP [1] | Compound | pest or weed control at 500 ppm (Puccinia recondita) [%] | pest or weed control at 500 ppm (Uromyces appendiculatus) [%] | pest or weed control at 500 ppm [2] [%]
1 | 2.56 | CC(O)(Cn1cncn1)c1ccc(Oc2ccc(C(F)(F)F)nc2)nc1C(F)(F)F (stereo not shown) [I-02, 1-(1,2,4-triazol-1-yl)-2-[2-(trifluoromethyl)-6-[[6-(trifluoromethyl)-3-pyridyl]oxy]-3-pyridyl]propan-2-ol] | 80 to 89 | 90 to 100 | 90 to 100
2 | 2.18 | CC(O)(Cn1cncn1)c1cnc(Oc2ccc(Cl)nc2)cc1C(F)(F)F (stereo not shown) [I-06, 2-[6-[(6-chloro-3-pyridyl)oxy]-4-(trifluoromethyl)-3-pyridyl]-1-(1,2,4-triazol-1-yl)propan-2-ol] | 90 to 100 | 90 to 100 | 90 to 100
3 | 2.13 | OC(Cn1cncn1)c1cnc(Oc2ccc(Br)nc2)cc1C(F)(F)F (stereo not shown) [I-13] | 90 to 100 | – | 90 to 100
4 | 2.2 | OC(Cn1cncn1)c1ccc(Oc2ccc(C(F)(F)F)nc2)nc1C(F)(F)F (stereo not shown) [I-09] | 90 to 100 | 90 to 100 | 90 to 100
5 | 2.21 | CC(O)(Cn1cncn1)c1ccc(Oc2ccc(Cl)nc2)nc1C(F)(F)F (stereo not shown) [I-05] | 80 to 89 | 90 to 100 | 90 to 100
6 | 2.25 | CC(O)(Cn1cncn1)c1ccc(Oc2ccc(Br)nc2)nc1C(F)(F)F (stereo not shown) [I-01, 2-[6-[(6-bromo-3-pyridyl)oxy]-2-(trifluoromethyl)-3-pyridyl]-1-(1,2,4-triazol-1-yl)propan-2-ol] | 90 to 100 | 80 to 89 | 90 to 100
7 | 2.3 | CC(O)(Cn1cncn1)c1cnc(Oc2ccc(Br)nc2)cc1C(F)(F)F (stereo not shown) [I-07] | 80 to 89 | 70 to 79 | 90 to 100
8 | 2.53 | CC(O)(Cn1cncn1)c1cnc(Oc2ccc(C(F)(F)F)nc2)cc1C(F)(F)F (stereo not shown) [I-04] | 90 to 100 | 90 to 100 | 90 to 100
